Measured values published in ChEMBL document CHEMBL4049435, “Development of a Series of Kynurenine 3-Monooxygenase Inhibitors Leading to a Clinical Candidate for the Treatment of Acute Pancreatitis” (J Med Chem, 2017).

Assays:
[1] = Lipophilicity, log D of the compound at pH 7.4 by RP-HPLC analysis; type: physicochemical; conditions: buffer
serum albumin = serum albumin (Homo sapiens, UniProt P02768); assay: Binding affinity to human serum albumin by HPLC analysis; type: ADME; conditions: read-out: PB (converted)
[2] = Permeability of the compound by PAMPA; type: physicochemical; conditions: read-out: permeability
[3] = Volume of distribution at steady state in Han-Wistar rat at 1 mg/kg, iv by LC-MS/MS analysis; type: ADME, organism-based; conditions: in vivo, read-out: Vdss
[4] = Stability of the compound in presence of light measured after 12 hrs; type: physicochemical; conditions: read-out: Stability
[5] = Half life in Han-Wistar rat at 1 mg/kg, iv by LC-MS/MS analysis; type: ADME, organism-based; conditions: in vivo
[6] = Clearance in Han-Wistar rat blood at 1 mg/kg, iv by LC-MS/MS analysis; type: ADME, organism-based; conditions: whole blood
[7] = Half life of the compound at pH 6 under oxidative condition; type: physicochemical
[8] = Protein binding in Han-Wistar rat plasma at 1 mg/kg, iv by LC-MS/MS analysis; type: ADME, organism-based; conditions: read-out: PPB (converted)
[9] = Solubility of the compound in saline measured after 24 hrs; type: physicochemical
[10] = Protein binding in human plasma; type: ADME, cell-free; conditions: read-out: PPB (converted)
[11] = target: T1, Kynurenine 3-monooxygenase (Homo sapiens, UniProt O15229)
[12] = target: T1, Kynurenine 3-monooxygenase; assay: Inhibition of full length human GST-tagged KMO expressed in baculovirus infected Sf9 insect cell membranes using kynurenine as substrate measured after 1 hr by RapidFire high-throughput mass spectrometric analysis

T1 sequence (O15229 whole entry): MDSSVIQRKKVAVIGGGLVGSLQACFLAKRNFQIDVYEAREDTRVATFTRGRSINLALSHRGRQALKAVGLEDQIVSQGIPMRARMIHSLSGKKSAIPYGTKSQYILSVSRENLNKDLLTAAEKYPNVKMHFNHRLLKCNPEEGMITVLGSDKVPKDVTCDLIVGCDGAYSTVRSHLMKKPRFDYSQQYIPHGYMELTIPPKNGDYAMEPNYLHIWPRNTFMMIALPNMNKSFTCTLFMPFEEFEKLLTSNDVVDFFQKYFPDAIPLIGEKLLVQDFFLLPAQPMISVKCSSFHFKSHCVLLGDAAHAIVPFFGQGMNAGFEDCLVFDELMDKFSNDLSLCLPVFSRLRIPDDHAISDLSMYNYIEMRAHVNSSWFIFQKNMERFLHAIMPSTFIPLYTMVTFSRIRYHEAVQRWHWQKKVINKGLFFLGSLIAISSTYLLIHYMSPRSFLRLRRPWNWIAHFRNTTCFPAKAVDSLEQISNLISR
Sequence of serum albumin (P02768 whole entry): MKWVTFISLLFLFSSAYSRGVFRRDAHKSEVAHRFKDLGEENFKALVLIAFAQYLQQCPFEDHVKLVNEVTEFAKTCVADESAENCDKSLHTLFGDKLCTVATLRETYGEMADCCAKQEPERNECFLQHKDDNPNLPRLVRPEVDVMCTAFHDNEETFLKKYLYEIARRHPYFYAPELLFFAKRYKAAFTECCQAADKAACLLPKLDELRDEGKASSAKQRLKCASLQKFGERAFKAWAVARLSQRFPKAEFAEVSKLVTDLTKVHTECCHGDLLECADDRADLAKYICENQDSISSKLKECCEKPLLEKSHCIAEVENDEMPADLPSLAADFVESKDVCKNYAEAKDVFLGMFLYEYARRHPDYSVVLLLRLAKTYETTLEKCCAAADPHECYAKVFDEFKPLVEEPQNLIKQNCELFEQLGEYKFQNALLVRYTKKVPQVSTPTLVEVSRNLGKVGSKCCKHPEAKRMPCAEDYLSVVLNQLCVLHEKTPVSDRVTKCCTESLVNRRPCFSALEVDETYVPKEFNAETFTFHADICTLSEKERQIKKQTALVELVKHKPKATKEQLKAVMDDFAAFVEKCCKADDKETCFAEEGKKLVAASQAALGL

Row | Compound | logD [1] | fraction unbound (serum albumin) | Papp [2] | fraction unbound [10] | also measured
1 | Cc1cccc([C@@H](C)Oc2cc3oc(=O)n(CCC(=O)O)c3cc2Cl)n1.NC(CO)(CO)CO | 2.12 | 0.068 | 2.1 ×10⁻⁶ cm/s | – | –
2 | O=C(O)CCn1c(=O)oc2cc(OCC3CC3)c(Cl)cc21 | – | – | – | – | Vd [3]: 0.26 L/kg; remaining at 12 h [4]: 105%; half-life [5]: 0.68 h; clearance [6]: 4.1 mL/min/kg; half-life [7]: > 1000 h; fraction unbound [8]: 0.098
3 | C[C@@H](Oc1cc2onc(CCC(=O)O)c2cc1Cl)c1ccc(Cl)cn1 | – | – | – | – | Vd [3]: 0.26 L/kg; remaining at 12 h [4]: 99.5%; half-life [5]: 8.7 h; clearance [6]: 0.35 mL/min/kg; half-life [7]: > 1000 h; fraction unbound [8]: 0.003
4 | Cc1ccc([C@@H](C)Oc2cc3onc(CCC(=O)O)c3cc2Cl)nc1.NC(CO)(CO)CO | 2.42 | 0.016 | – | 0.003 | solubility at 24 h [9]: > 860 µg/mL
5 | Cc1ccc([C@@H](C)Oc2cc3onc(CCC(=O)O)c3cc2Cl)nn1 | 2.97 | 0.108 | – | 0.071 | Vd [3]: 1.1 L/kg; remaining at 12 h [4]: 85.2%; half-life [5]: 1.5 h; clearance [6]: 12 mL/min/kg; IC50 [11]: 3.16 nM; half-life [7]: > 1000 h; fraction unbound [8]: 0.067
6 | C[C@@H](Oc1cc2ccn(CCC(=O)O)c2cc1Cl)c1ccccn1 | 2.17 | – | – | – | –
7 | Cc1ccc([C@@H](C)Oc2cc3onc(CCC(=O)O)c3cc2Cl)nc1 | – | – | – | – | Vd [3]: 0.31 L/kg; remaining at 12 h [4]: 96.5%; half-life [5]: 3.6 h; clearance [6]: 1.1 mL/min/kg; half-life [7]: > 1000 h; fraction unbound [8]: 0.009
8 | C[C@H](Oc1cc2oc(=O)n(CCC(=O)O)c2cc1Cl)c1ccccn1.NC(CO)(CO)CO | 1.79 | 0.084 | < 0.3 ×10⁻⁶ cm/s | – | –
9 | Cc1cc2oc(=O)n(CCC(=O)O)c2cc1Cl.NC(CO)(CO)CO | 1.26 | 0.05 | 0.3 to 1 ×10⁻⁶ cm/s | – | solubility at 24 h [9]: > 127000 µg/mL; IC50 [11]: 631 nM
10 | C[C@@H](Oc1cc2c(cc1Cl)N(CCC(=O)O)C(=O)CO2)c1ccccn1 | 1.56 | – | – | 0.075 | –
11 | C[C@@H](Oc1cc2oc(=O)n(CCC(=O)O)c2cc1Cl)c1ccc(Cl)cn1.NC(CO)(CO)CO | 2.65 | 0.021 | 6 ×10⁻⁶ cm/s | 0.01 | –
12 | O=C(O)CCn1c(=O)oc2cc(OCc3ccccc3)c(Cl)cc21 | 2.71 | 0.017 | – | – | –
13 | Cc1ccc([C@@H](C)Oc2cc3onc(CCC(=O)O)c3cc2Cl)nn1.NC(CO)(CO)CO | – | – | – | – | solubility at 24 h [9]: 230 µg/mL
14 | C[C@@H](Oc1cc2oc(=O)n(CCC(=O)O)c2cc1Cl)c1ccccn1 | – | – | – | – | Vd [3]: 2.96 L/kg; remaining at 12 h [4]: 99.2%; half-life [5]: 5.6 h; clearance [6]: 16.8 mL/min/kg; half-life [7]: > 1000 h; fraction unbound [8]: 0.215
15 | CCOc1cc2oc(=O)n(CCC(=O)O)c2cc1Cl | – | – | – | – | Vd [3]: 0.36 L/kg; remaining at 12 h [4]: 99.5%; half-life [5]: 0.43 h; clearance [6]: 16 mL/min/kg; half-life [7]: > 1000 h; fraction unbound [8]: 0.184
16 | CC(C)Cc1cc2oc(=O)n(CCC(=O)O)c2cc1Cl.NC(CO)(CO)CO | 3.03 | 0.008 | < 1 ×10⁻⁶ cm/s | – | –
17 | O=C(O)CCn1c(=O)oc2cc(OCc3ccccn3)c(Cl)cc21 | – | – | – | – | Ki [12]: 1 nM
18 | C[C@@H](Oc1cc2oc(=O)n(CCC(=O)O)c2cc1Cl)c1ccc(F)cn1.NC(CO)(CO)CO | 1.98 | 0.06 | 3.1 ×10⁻⁶ cm/s | – | –
19 | Cc1ccnc([C@@H](C)Oc2cc3oc(=O)n(CCC(=O)O)c3cc2Cl)c1.NC(CO)(CO)CO | 2.15 | 0.056 | < 0.3 ×10⁻⁶ cm/s | – | –
20 | O=C(O)CCn1c(=O)oc2cc(OC3CC3)c(Cl)cc21 | – | – | – | – | Vd [3]: 0.29 L/kg; remaining at 12 h [4]: 100%; half-life [5]: 0.39 h; clearance [6]: 9.4 mL/min/kg; half-life [7]: > 1000 h; fraction unbound [8]: 0.097
21 | Cc1cc2oc(=O)n(CCC(=O)O)c2cc1Cl | – | – | – | 0.024 | Vd [3]: 0.52 L/kg; remaining at 12 h [4]: 100%; half-life [5]: 3.7 h; clearance [6]: 4.7 mL/min/kg; half-life [7]: > 1000 h; fraction unbound [8]: 0.045
22 | NC(CO)(CO)CO.O=C(O)CCn1c(=O)oc2cc(Cl)c(Cl)cc21 | – | – | – | – | solubility at 24 h [9]: 270 µg/mL

The next lines start with results.

Row | logD [1] | fraction unbound (serum albumin) | Papp [2] | fraction unbound [10] | Compound | also measured
23 | 0.83 | 0.409 | < 0.3 ×10⁻⁶ cm/s | – | C[C@@H](Oc1cc2oc(=O)n(CCC(=O)O)c2cc1Cl)c1ncccn1.NC(CO)(CO)CO | –
24 | 1.71 | 0.067 | 0.3 to 2 ×10⁻⁶ cm/s | 0.119 | C[C@@H](Oc1cc2oc(=O)n(CCC(=O)O)c2cc1Cl)c1ccccn1.NC(CO)(CO)CO | solubility at 24 h [9]: > 9500 µg/mL
25 | 2.91 | 0.01 | – | 0.002 | C[C@@H](Oc1cc2onc(CCC(=O)O)c2cc1Cl)c1ccc(Cl)cn1.NC(CO)(CO)CO | solubility at 24 h [9]: > 620 µg/mL
26 | 1.49 | 0.113 | < 1 ×10⁻⁶ cm/s | 0.042 | CCOc1cc2oc(=O)n(CCC(=O)O)c2cc1Cl.NC(CO)(CO)CO | solubility at 24 h [9]: > 1880 µg/mL
27 | 0.83 | 0.409 | < 0.3 ×10⁻⁶ cm/s | 0.319 | C[C@@H](Oc1cc2oc(=O)n(CCC(=O)O)c2cc1Cl)c1cccnn1 | IC50 [11]: 631 nM; IC50 [12]: 1.26 nM
28 | 1.99 | – | – | 0.022 | C[C@@H](Oc1cc2onc(CCC(=O)O)c2cc1Cl)c1ccccn1.NC(CO)(CO)CO | solubility at 24 h [9]: > 7440 µg/mL
29 | 1.81 | – | – | – | C[C@@H](Oc1cc2sc(=O)n(CCC(=O)O)c2cc1Cl)c1ccccn1 | –
30 | 2.9 | 0.019 | 1.2 ×10⁻⁶ cm/s | 0.019 | NC(CO)(CO)CO.O=C(O)CCn1c(=O)oc2cc(OCC3CCC3)c(Cl)cc21 | –
31 | 2.47 | 0.017 | – | – | C[C@@H](Oc1cc2onc(CCC(=O)O)c2cc1Cl)c1ccc(F)cn1 | –
32 | 1.94 | 0.026 | 1 to 2.2 ×10⁻⁶ cm/s | 0.013 | CCc1cc2oc(=O)n(CCC(=O)O)c2cc1Cl.NC(CO)(CO)CO | –
33 | 0.88 | 0.558 | < 0.3 ×10⁻⁶ cm/s | 0.293 | COCCOc1cc2oc(=O)n(CCC(=O)O)c2cc1Cl.NC(CO)(CO)CO | –
34 | 1.7 | – | – | 0.099 | C[C@@H](Oc1cc2cnn(CCC(=O)O)c2cc1Cl)c1ccccn1 | –
35 | 2.02 | – | 2.2 ×10⁻⁶ cm/s | 0.022 | Cc1ccc([C@@H](C)Oc2cc3oc(=O)n(CCC(=O)O)c3cc2Cl)nc1.NC(CO)(CO)CO | –
36 | 1.86 | 0.129 | < 0.3 ×10⁻⁶ cm/s | 0.183 | CC(Oc1cc2oc(=O)n(CCC(=O)O)c2cc1Cl)c1ccccn1.NC(CO)(CO)CO (configuration not stated) | –
37 | -0.26 | 0.849 | < 0.3 ×10⁻⁶ cm/s | – | NC(CO)(CO)CO.O=C(O)CCn1c(=O)oc2cc(OCCN3CCCC3)c(Cl)cc21 | –
38 | – | 0.11 | < 0.3 ×10⁻⁶ cm/s | – | COc1cc2oc(=O)n(CCC(=O)O)c2cc1Cl | –
39 | 1.11 | 0.227 | < 0.3 ×10⁻⁶ cm/s | – | C[C@@H](Oc1cc2oc(=O)n(CCC(=O)O)c2cc1Cl)c1ncco1.NC(CO)(CO)CO | –
40 | 1.61 | 0.037 | 2.4 ×10⁻⁶ cm/s | 0.018 | O=C(O)CCn1c(=O)oc2cc(Cl)c(Cl)cc21 | Vd [3]: 0.28 L/kg; remaining at 12 h [4]: 41%; half-life [5]: 4.3 h; clearance [6]: 4.3 mL/min/kg; half-life [7]: 334 h; fraction unbound [8]: 0.083
